According to patent US8076487B2, “Pyridone derivative and herbicide” (Kumiai Chemical Industry Co., Ltd., priority 2006, dated 2011):

Assays:
Format in all cases: in vivo
[1] = tested on: slender amaranth (Amaranthus viridis L.); assay: Test Example 3: herbicidal effect by application to upland field (foliage treatment); details: 14th day after application; for herbicidal effect (index), Slender Amaranth: foliage treatment, plants grown two weeks, 1,000 g active ingredient per hectare; for herbicidal effect, Slender Amaranth: foliage treatment, 1,000 g active ingredient per 1 hectare, greenhouse
Experimental: (§1) [table] Test Example 3 Test on Herbicidal Effect by Application to Upland Field In a 80 cm2 plastic pot, field soil was filled. Seeds of barnyardgrass (Echinochloa crus-galli (L.) P. Beauv. var. crus-galli), green foxtail (Setaria viridis (L.) P. Beauv.), velvetleaf (Abutilon theophrasti medicus), and slender amaranth (Amaranthus viridis L.) were sown and allowed to grow for two weeks in a greenhouse. Thereafter, the wettable powder prepared according to Formulation Example 1 was diluted in water and a 1,000 liter equivalent amount per 1 hectare so that the active ingredient becomes 1,000 g per 1 hectare was sprayed using a small sprayer from a top of the plants through its entire body for foliage treatment. Then, on the 14th day after the application to the plants grew in a greenhouse, the herbicidal effect was examined in accordance with a standard shown in Table 34.

[2] = tested on: barnyardgrass (Echinochloa crus-galli (L.) P. Beauv. var. crus-galli); assay: as above; details: 14th day after application; for herbicidal effect (index), Barnyardgrass: foliage treatment, plants grown two weeks, 1,000 g active ingredient per hectare; for herbicidal effect, Barnyardgrass: foliage treatment, 1,000 g active ingredient per 1 hectare, greenhouse
Experimental: as §1

[3] = tested on: green foxtail (Setaria viridis (L.) P. Beauv.); assay: as above; details: 14th day after application; for herbicidal effect (index), Green Foxtail: foliage treatment, plants grown two weeks, 1,000 g active ingredient per hectare; for herbicidal effect, Green Foxtail: foliage treatment, 1,000 g active ingredient per 1 hectare, greenhouse
Experimental: as §1

[4] = tested on: velvetleaf (Abutilon theophrasti medicus); assay: as above; details: 14th day after application; for herbicidal effect (index), Velvetleaf: foliage treatment, plants grown two weeks, 1,000 g active ingredient per hectare; for herbicidal effect, Velvetleaf: foliage treatment, 1,000 g active ingredient per 1 hectare, greenhouse
Experimental: as §1

[5] = tested on: Japanese bulrush (Scirpus juncoides Roxb.); assay: Test Example 1: herbicidal effect by soil application to paddy field; details: paddy field soil application; active ingredient 1,000 g per 1 hectare; wettable powder added dropwise to water surface the day after sowing; examined on the 21st day after application
How it was run: (§2)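 Under greenhouse conditions, seeds sown on puddled paddy soil in 100 cm2 pots under 3 cm of standing water received the test compound; injury was assessed with a standard scoring scheme three weeks (day 21) after treatment.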

[6] = tested on: heartshape false pickerelweed (Monochoria vaginalis (Burm.f.) C.Presl); assay: as above; details: paddy field soil application; active ingredient 1,000 g per 1 hectare; wettable powder added dropwise to water surface the day after sowing; examined on the 21st day after application
How it was run: as §2

[7] = tested on: early watergrass (Echinochloa oryzicola Vasing); assay: as above; details: paddy field soil application; active ingredient 1,000 g per 1 hectare; wettable powder added dropwise to water surface the day after sowing; examined on the 21st day after application
How it was run: as §2

Row | Structure (SMILES) | herbicidal effect (index), Slender Amaranth [1] | herbicidal effect (index), Barnyardgrass [2] | herbicidal effect (index), Green Foxtail [3] | herbicidal effect (index), Velvetleaf [4] | herbicidal effect, Scirpus juncoides Roxb. [5] | herbicidal effect, Monochoria vaginalis (Burm. f.) C. Presl [6] | herbicidal effect, Echinochloa oryzicola Vasing [7] | herbicidal effect, Slender Amaranth [1] | herbicidal effect, Barnyardgrass [2] | herbicidal effect, Green Foxtail [3] | herbicidal effect, Velvetleaf [4]
1 | C=C(C)Cn1c(C(F)(F)F)ccc(C(=O)C2=C(O)CCCC2=O)c1=O [I-12] | 5 (90% or more of herbicidal effect and crop phytotoxicity) | 5 (90% or more of herbicidal effect and crop phytotoxicity) | 5 (90% or more of herbicidal effect and crop phytotoxicity) | 5 (90% or more of herbicidal effect and crop phytotoxicity) | 5 (90% or more of herbicidal effect and crop phytotoxicity) | 5 (90% or more of herbicidal effect and crop phytotoxicity) | 5 (90% or more of herbicidal effect and crop phytotoxicity) | – | – | – | –
2 | Cn1ncc(C(=O)c2ccc(C(F)(F)F)n(Cc3c(C(F)(F)F)nn(C)c3OC(F)F)c2=O)c1O [IV-108] | – | – | – | – | 5 (90% or more of herbicidal effect and crop phytotoxicity) | 4 (70 to less than 90% of herbicidal effect and crop phytotoxicity) | 5 (90% or more of herbicidal effect and crop phytotoxicity) | 4 (70 to less than 90% of herbicidal effect and crop phytotoxicity) | 4 (70 to less than 90% of herbicidal effect and crop phytotoxicity) | 4 (70 to less than 90% of herbicidal effect and crop phytotoxicity) | 5 (90% or more of herbicidal effect and crop phytotoxicity)
3 | COCCN(C)n1c(C(F)(F)F)ccc(C(=O)C2=C(O)CCCC2=O)c1=O [I-176] | – | – | – | – | 5 (90% or more of herbicidal effect and crop phytotoxicity) | 5 (90% or more of herbicidal effect and crop phytotoxicity) | 5 (90% or more of herbicidal effect and crop phytotoxicity) | 5 (90% or more of herbicidal effect and crop phytotoxicity) | 5 (90% or more of herbicidal effect and crop phytotoxicity) | 5 (90% or more of herbicidal effect and crop phytotoxicity) | 5 (90% or more of herbicidal effect and crop phytotoxicity)
4 | Cc1ccc(C(=O)COc2c(C(=O)c3ccc(C(F)(F)F)n(CC4CCCO4)c3=O)cnn2C)cc1 (centres unmarked) [IV-139] | – | – | – | – | 5 (90% or more of herbicidal effect and crop phytotoxicity) | 5 (90% or more of herbicidal effect and crop phytotoxicity) | 5 (90% or more of herbicidal effect and crop phytotoxicity) | 5 (90% or more of herbicidal effect and crop phytotoxicity) | 5 (90% or more of herbicidal effect and crop phytotoxicity) | 4 (70 to less than 90% of herbicidal effect and crop phytotoxicity) | 5 (90% or more of herbicidal effect and crop phytotoxicity)
5 | O=C1CCCC(O)=C1C(=O)c1ccc(C(F)(F)F)n(-c2c(F)cccc2F)c1=O [I-104] | 5 (90% or more of herbicidal effect and crop phytotoxicity) | 5 (90% or more of herbicidal effect and crop phytotoxicity) | 4 (70 to less than 90% of herbicidal effect and crop phytotoxicity) | 5 (90% or more of herbicidal effect and crop phytotoxicity) | 5 (90% or more of herbicidal effect and crop phytotoxicity) | 5 (90% or more of herbicidal effect and crop phytotoxicity) | 5 (90% or more of herbicidal effect and crop phytotoxicity) | – | – | – | –
6 | Cn1ncc(C(=O)c2ccc(C(F)(F)F)n(-c3ccc(Cl)cc3)c2=O)c1O [IV-63] | – | – | – | – | 5 (90% or more of herbicidal effect and crop phytotoxicity) | 5 (90% or more of herbicidal effect and crop phytotoxicity) | 5 (90% or more of herbicidal effect and crop phytotoxicity) | 5 (90% or more of herbicidal effect and crop phytotoxicity) | 4 (70 to less than 90% of herbicidal effect and crop phytotoxicity) | 4 (70 to less than 90% of herbicidal effect and crop phytotoxicity) | 5 (90% or more of herbicidal effect and crop phytotoxicity)
7 | CCC(C)n1c(C(F)(F)F)ccc(C(=O)C2=C(O)C3CCC(C3)C2=O)c1=O (centres unmarked) [III-8] | – | – | – | – | 5 (90% or more of herbicidal effect and crop phytotoxicity) | 5 (90% or more of herbicidal effect and crop phytotoxicity) | 5 (90% or more of herbicidal effect and crop phytotoxicity) | 3 (50 to less than 70% of herbicidal effect and crop phytotoxicity) | 5 (90% or more of herbicidal effect and crop phytotoxicity) | 5 (90% or more of herbicidal effect and crop phytotoxicity) | 5 (90% or more of herbicidal effect and crop phytotoxicity)
8 | CCC(C)Nn1c(C(F)(F)F)ccc(C(=O)C2=C(O)CCCC2=O)c1=O (centres unmarked) [I-163] | – | – | – | – | 5 (90% or more of herbicidal effect and crop phytotoxicity) | 5 (90% or more of herbicidal effect and crop phytotoxicity) | 5 (90% or more of herbicidal effect and crop phytotoxicity) | 5 (90% or more of herbicidal effect and crop phytotoxicity) | 5 (90% or more of herbicidal effect and crop phytotoxicity) | 5 (90% or more of herbicidal effect and crop phytotoxicity) | 5 (90% or more of herbicidal effect and crop phytotoxicity)
9 | CC(=O)Oc1c(C(=O)c2ccc(C(F)(F)F)n(C)c2=O)cnn1C(C)C [IV-220] | – | – | – | – | 5 (90% or more of herbicidal effect and crop phytotoxicity) | 5 (90% or more of herbicidal effect and crop phytotoxicity) | 5 (90% or more of herbicidal effect and crop phytotoxicity) | 5 (90% or more of herbicidal effect and crop phytotoxicity) | 4 (70 to less than 90% of herbicidal effect and crop phytotoxicity) | 3 (50 to less than 70% of herbicidal effect and crop phytotoxicity) | 5 (90% or more of herbicidal effect and crop phytotoxicity)
10 | CCN(C(=O)OC(C)(C)C)n1c(C(F)(F)F)ccc(C(=O)C2=C(O)CCCC2=O)c1=O [I-195] | – | – | – | – | 5 (90% or more of herbicidal effect and crop phytotoxicity) | 5 (90% or more of herbicidal effect and crop phytotoxicity) | 5 (90% or more of herbicidal effect and crop phytotoxicity) | 3 (50 to less than 70% of herbicidal effect and crop phytotoxicity) | 5 (90% or more of herbicidal effect and crop phytotoxicity) | 4 (70 to less than 90% of herbicidal effect and crop phytotoxicity) | 5 (90% or more of herbicidal effect and crop phytotoxicity)
11 | CC(Cn1c(C(F)(F)F)ccc(C(=O)C2=C(O)CCCC2=O)c1=O)OCc1ccccc1 (centres unmarked) [I-43] | 5 (90% or more of herbicidal effect and crop phytotoxicity) | 5 (90% or more of herbicidal effect and crop phytotoxicity) | 4 (70 to less than 90% of herbicidal effect and crop phytotoxicity) | 5 (90% or more of herbicidal effect and crop phytotoxicity) | 5 (90% or more of herbicidal effect and crop phytotoxicity) | 4 (70 to less than 90% of herbicidal effect and crop phytotoxicity) | 5 (90% or more of herbicidal effect and crop phytotoxicity) | – | – | – | –
